{"source": "patent US8580512B2", "about": "“Yeast-based methods of identifying nucleic acids and compounds for treating neurodegenerative diseases” (University of Alabama, priority 2008, dated 2013)", "key": {"S. pombe cells [1]": {"system": "S. pombe cells", "test": "Reversal of rotenone-induced proliferation inhibition", "type": "cell-based, Schizosaccharomyces pombe", "protocol": "Phosphatidylethanolamine (PE) deficiency results in a rotenone-sensitive phenotype that can be suppressed by ethanolamine. Log phase cultures were suspended at 10^7 cells/ml, serially diluted (1:10), and spotted (5 μl per spot) onto YES (Control) or YES containing 16 μM rotenone (+Rotenone).\nOxidative stress has been detected in the brains of deceased Parkinson's disease patients, and in rats exposed to rotenone as a model for Parkinson's disease."}, "S. pombe cells [2]": {"system": "S. pombe cells", "test": "Rotenone sensitivity assay (serial dilution spot growth on agar media)", "type": "cell-based, Schizosaccharomyces pombe", "settings": "for sensitivity of growth to rotenone: 16 μM rotenone; for sensitivity of growth to rotenone relative to wild type: rotenone 6.4 μg/ml; for inhibition of S. pombe growth: wild type", "protocol": "Yeast strains, media, and genetic methods. The following S. pombe strains were used in this study: SP870 (h90 ade6-210 leu1-32 ura4-D18), SPSPC1 U90 (h90 ade6-210 leu1-32 ura4-D18 spc1::ura4), SPM1L (h90 leu1-32 ura4-D18 spm1::LEU2). S. pombe cultures were grown in either YES medium (0.5% yeast extract; 3% dextrose; and adenine, histidine, leucine, lysine and uracil, each at 250 mg/L) or Edinburgh minimal medium (EMM) containing required auxotrophic supplements (Alfa et al., (1993) Experiments with fission yeast: A laboratory course manual, Cold Spring Harbor Laboratory Press, Cold Spring Harbor, N.Y., incorporated herein by reference in its entirety). Agar media contained 2% Bacto agar (Difco).\nRotenone sensitivity assay. Rotenone stock solutions (10 mM in DMSO) were prepared just prior to carrying out each experiment and protected from light. Rotenone containing YES and EMM agar media were prepared by mixing rotenone stock solution with growth medium as required for the desired rotenone concentration (up to 6.4 μg/ml). For agar media, rotenone stock solution was added after autoclaving and cooling of the media to approximately 45° C. DMSO was added to control media at concentrations equivalent to that in media supplemented with rotenone. Plates were incubated at room temperature for 3-12 hr prior to use. S. pombe strains were cultured overnight in YES liquid medium at 30° C. to mid-log phase, concentrated to 5×10^6 cells/ml, and serially diluted (1:5). Three μl of each dilution was spotted onto rotenone containing plates and control plates and the plates were incubated at 30° C. for 2-4 days, as indicated in relevant figure legends.\nEffects of rotenone on S. pombe cell growth in nutrient-enriched and nutrient-limited conditions. To investigate the effects of rotenone on S. pombe cell growth, we prepared complex rich (YES) and synthetic defined minimal (EMM) agar media containing concentrations of rotenone ranging from 0.2 to 6.4 μg/ml. […] Since rotenone has a relatively short half-life in aqueous solutions, growth media containing the toxin were prepared freshly prior to each experiment. Mid-log phase cultures of wild type S. pombe cells were serially diluted and tested for growth on YES and EMM plates containing rotenone and on control media lacking the toxin.\nTo determine whether spc1Δ and/or pmk1Δ mutants are hypersensitive to rotenone, log phase cultures of the two strains and wild type S. pombe cells were serially diluted and tested for growth on YES medium containing rotenone and on control medium lacking the toxin. […] The reduced sensitivity of spc1Δ cells to rotenone was most evident after incubation of the cultures for two days (FIG. 8A), with the difference after 3 days of growth being apparent from examination of colony sizes at the end of the cell dilution series on the respective plates (FIG. 8B)."}, "S. pombe cells [3]": {"system": "S. pombe cells", "test": "MitoTracker Green FM staining of mitochondrial localization", "type": "cell-based, Schizosaccharomyces pombe", "protocol": "(§1) MitoTracker Green FM and dihydroethidium (DHE) staining of S. pombe cells. Mitochondrial localization was detected by staining S. pombe cells with MitoTracker Green FM (MTGreen) based on the protocol recommended by the manufacturer (Invitrogen). Briefly, S. pombe cells were cultured overnight in YES liquid medium at 30° C. to mid-log phase. Where indicated, rotenone stock solution was added to portions of each culture to a final concentration of 6.4 μg/ml. Equivalent volumes of DMSO were added to control cultures. Stock solutions of MTGreen (5 μM in DMSO) were prepared just prior to use. Staining was carried out by adding 10 μl of MTGreen stock solution to 1 ml of cell culture and incubating at 30° C. with shaking for 20 min. Stained cells were washed once with YES and resuspended in approximately 10 μl of YES prior to preparation of samples for microscopy. Stained cells were concentrated by centrifugation to a volume of approximately 10 μl. DHE staining was carried out as described by Huard et al., (2008) Cell Res. 18: 961-973, incorporated herein by reference in its entirety. Stained cells were visualized by epifluorescence microscopy using a Nikon 90i automated epifluorescence microscope system operated using Nikon NIS-Elements software. Images were captured using a CoolSNAP HQ2 monochrome CCD camera (Photometrics). RAW images were level-adjusted using the Adobe PhotoShop CS3 software application.\nRotenone induces disruption of mitochondrial localization in S. pombe cells. Similar to some mammalian cells, such as fibroblasts and nerve cells (Barsoum et al., (2006) EMBO J. 25: 3900-3911; Amchenkova et al., (1988) J. Cell. Biol. 107: 481-495), mitochondria in S. pombe are organized into tubular structures (Chiron et al., (2007) Methods Mol. Biol. 372: 91-105), as shown in FIG. 5A. […] Wild type S. pombe cells were cultured to mid-log phase in YES liquid medium were treated with rotenone (6.4 μg/ml) for 4 hr, stained with the fluorescent mitochondrial dye MitoTracker Green FM (MTGreen), and visualized by fluorescence microscopy. […]"}, "S. pombe cells [4]": {"system": "S. pombe cells", "test": "Dihydroethidium (DHE) staining for ROS", "type": "cell-based, Schizosaccharomyces pombe", "settings": "rotenone 6.4 μg/ml; for ROS levels (DHE): wild type", "protocol": "as §1\nRotenone induces generation of ROS in S. pombe cells. Since rotenone induces generation of ROS in mammalian cell cultures and oxidative stress damage in the brains of rats chronically treated with the toxin (Li et al., (2003) J. Biol. Chem. 278: 8516-8525; Greenamyre et al., (2003) Parkinsonism Relat. Disord. 9 (Suppl 2): S59-64), it was determined whether rotenone also induces generation of ROS in S. pombe cells. To do this, wild type S. pombe cells were treated with rotenone and periodically analyzed the treated cells by staining with dihydroethidium (DHE), which is oxidized to ethidium in the presence of ROS (Bindokas et al., (1996) J. Neurosci. 16: 1324-1336).\nPmk1, but not Spc1, is required for normal clearance of rotenone-induced ROS in S. pombe cells. To investigate further the effects of rotenone on spc1Δ and pmk1Δ cells, we treated the two strains and wild type S. pombe cells were treated with rotenone for 12 hrs and stained cells from treated and control cultures with DHE for detection of ROS by fluorescence microscopy."}, "S. pombe cells [5]": {"system": "S. pombe cells", "test": "DIC microscopy of cell morphology", "type": "cell-based, Schizosaccharomyces pombe", "settings": "wild type, rotenone 6.4 μg/ml, 4 to 24 hrs", "source_text": "To determine whether rotenone induces abnormalities in S. pombe cell morphology, rotenone-treated and untreated S. pombe cells were compared by DIC microscopy."}, "S. pombe cells [6]": {"system": "S. pombe cells", "settings": "0.3 μg/ml rotenone, Heslot et al. 1970; cited from earlier work"}}, "data": [{"smiles": "O=C1O[C@H]([C@@H](O)CO)C(O)=C1O", "note": "[ascorbic acid]", "values": [{"measurement": "reversal of rotenone-induced proliferation inhibition", "setting": "S. pombe cells [1]; pka1Δ S. pombe cells", "result": "reversed"}, {"measurement": "reversal of rotenone-induced proliferation inhibition", "setting": "S. pombe cells [1]; wild-type S. pombe cells, nutrient stressed conditions", "result": "reversed"}]}, {"smiles": "NCCO", "note": "[ethanolamine]", "values": [{"measurement": "suppression of rotenone-sensitive phenotype", "setting": "S. pombe cells [1]; psd1-3Δ (phosphatidylethanolamine deficient) strain, YES with 16 μM rotenone, 1 mM ethanolamine", "result": "suppressed"}]}, {"smiles": "C=C(C)[C@H]1Cc2c(ccc3c2O[C@@H]2COc4cc(OC)c(OC)cc4[C@@H]2C3=O)O1", "note": "[rotenone]", "values": [{"measurement": "sensitivity of growth to rotenone", "setting": "S. pombe cells [2]; aks1Δ mutant, complex YES medium", "result": "strongly hypersensitive"}, {"measurement": "sensitivity of growth to rotenone", "setting": "S. pombe cells [2]; cgs1Δ mutant, complex YES medium", "result": "does not significantly increase the sensitivity"}, {"measurement": "sensitivity of growth to rotenone", "setting": "S. pombe cells [2]; cgs1Δaks1Δ double mutant, complex YES medium", "result": "allowing the yeast to proliferate in the presence of rotenone"}, {"measurement": "sensitivity of growth to rotenone", "setting": "S. pombe cells [2]; pka1Δ mutant, complex YES medium", "result": "strongly hypersensitive"}, {"measurement": "sensitivity of growth to rotenone relative to wild type", "setting": "S. pombe cells [2]; pmk1Δ mutant, YES medium, 3 days", "result": "profoundly more sensitive"}, {"measurement": "sensitivity of growth to rotenone", "setting": "S. pombe cells [2]; psd1Δ psd2Δ psd3Δ triple deletion, complex medium", "result": "increased sensitivity"}, {"measurement": "sensitivity of growth to rotenone relative to wild type", "setting": "S. pombe cells [2]; spc1Δ mutant, YES medium, 2-3 days", "result": "slightly less sensitive"}, {"measurement": "sensitivity of growth to rotenone", "setting": "S. pombe cells [2]; spc1Δ mutant, complex YES medium", "result": "not hypersensitive"}, {"measurement": "inhibition of S. pombe growth", "setting": "S. pombe cells [2]; EMM minimal medium, 1.6 μg/ml rotenone, 4 days at 30° C.", "result": "slightly inhibited"}, {"measurement": "inhibition of S. pombe growth", "setting": "S. pombe cells [2]; EMM minimal medium, 6.4 μg/ml rotenone, 4 days at 30° C.", "result": "strongly inhibited"}, {"measurement": "inhibition of S. pombe growth", "setting": "S. pombe cells [2]; YES medium, 6.4 μg/ml rotenone, 3 days at 30° C.", "result": "modest inhibition"}, {"measurement": "inhibition of S. pombe growth", "setting": "S. pombe cells [2]; YES medium, rotenone concentrations lower than 6.4 μg/ml (from 0.2 μg/ml)", "result": "not on YES containing lower concentrations"}, {"measurement": "cells with fragmentation of mitochondrial localization", "setting": "S. pombe cells [3]; pmk1Δ cells, rotenone 6.4 μg/ml, 4 hr", "result": "approximately 70 % of cells"}, {"measurement": "effect on mitochondrial localization", "setting": "S. pombe cells [3]; spc1Δ cells, rotenone 6.4 μg/ml, 4 hr", "result": "marginal effect"}, {"measurement": "persistence of fragmented pattern of mitochondrial localization after initial exposure", "setting": "S. pombe cells [3]; wild type, continued culturing in rotenone containing medium, data not shown", "result": "at least 24 hrs"}, {"measurement": "rotenone-induced ROS levels (DHE) relative to wild type", "setting": "S. pombe cells [4]; pmk1Δ cells, 12 hrs", "result": "dramatically higher"}, {"measurement": "rotenone-induced ROS levels (DHE)", "setting": "S. pombe cells [4]; spc1Δ cells, 12 hrs", "result": "only a very slight increase"}, {"measurement": "ROS levels (DHE)", "setting": "S. pombe cells [4]; 6 hrs", "result": "higher levels of ROS than control cells"}, {"measurement": "ROS levels (DHE)", "setting": "S. pombe cells [4]; 12 hr", "result": "Higher levels of ROS"}, {"measurement": "defects in S. pombe cell morphology", "setting": "S. pombe cells [5]", "result": "does not induce obvious defects"}, {"measurement": "effect on S. pombe cell growth", "setting": "S. pombe cells [6]", "result": "negligible effect"}]}]}
